Measurements from the NIST ThermoML archive (doi:10.1021/je0340248).

Assay: xn = mol fraction of the nth substance listed
Details: 101 kPa, Liquid

CC(O)CO (stereo unspecified) [1,2-propanediol] + CCOC(C)=O
Details	mass density, 298.15 K [kg/m3]	mass density, 303.15 K [kg/m3]	mass density, 308.15 K [kg/m3]	mass density, 313.15 K [kg/m3]	speed of sound, 298.15 K [m/s]	speed of sound, 308.15 K [m/s]	viscosity, 298.15 K [mPa·s]	viscosity, 308.15 K [mPa·s]
x2 = 0.0451	1024.21	1020.33	1016.53	1012.46	1463	1429	32.32	19.38
x2 = 0.1493	1005.58	1001.36	997.21	992.76	1401	1371	16.84	11.71
x2 = 0.2515	988.63	984.09	979.68	974.9	1343	1317	9.278	7.28
x2 = 0.3514	973.2	968.36	963.71	958.63	1294	1268	5.396	4.653
x2 = 0.4393	960.46	955.37	950.52	945.17	1255	1229	3.463	3.184
x2 = 0.5	952.1	946.85	941.84	936.31	1232	1205	2.597	2.469
x2 = 0.5497	945.49	940.12	934.99	929.3	1215	1186	2.075	2.014
x2 = 0.6505	932.74	927.13	921.75	915.78	1186	1153	1.357	1.351
x2 = 0.7495	921.01	915.21	909.59	903.37	1164	1128	0.93	0.928
x2 = 0.8499	909.87	903.92	898.1	891.68	1149	1109	0.661	0.645
x2 = 0.9487	899.61	893.57	887.61	881.09	1140	1098	0.491	0.459

CC(O)CO (stereo unspecified) [1,2-propanediol] + COC(C)=O
Details	mass density, 298.15 K [kg/m3]	mass density, 303.15 K [kg/m3]	mass density, 308.15 K [kg/m3]	mass density, 313.15 K [kg/m3]	speed of sound, 298.15 K [m/s]	speed of sound, 308.15 K [m/s]	viscosity, 298.15 K [mPa·s]	viscosity, 308.15 K [mPa·s]
x2 = 0.0465	1027.72	1023.69	1020.09	1015.96	1472	1434	34.29	19.21
x2 = 0.1493	1016.8	1012.28	1008.63	1004.03	1429	1391	20.44	11.62
x2 = 0.251	1006.23	1001.34	997.58	992.61	1388	1350	12.35	7.189
x2 = 0.3512	995.96	990.75	986.86	981.59	1350	1313	7.576	4.553
x2 = 0.4412	986.79	981.3	977.29	971.76	1318	1281	4.915	3.063
x2 = 0.4906	981.76	976.11	972.05	966.37	1301	1264	3.887	2.478
x2 = 0.5499	975.7	969.85	965.73	959.87	1281	1244	2.939	1.932
x2 = 0.6483	965.55	959.34	955.15	949	1249	1211	1.859	1.294
x2 = 0.7483	955.01	948.45	944.2	937.77	1218	1178	1.176	0.875
x2 = 0.8499	943.97	937.1	932.79	926.1	1189	1147	0.744	0.598
x2 = 0.9447	933.26	926.21	921.8	914.96	1164	1119	0.489	0.425
